Measurements reported in ChEMBL document CHEMBL4190376, “Mapping the Efficiency and Physicochemical Trajectories of Successful Optimizations” (J Med Chem, 2018).
Converted amounts (≈) assume the structure as drawn. Values belong to the compound of their own block, whether it stands above or below them.

Columns and labels:
[1] = Ratio of drug level in rat liver to plasma; type: ADME
[2] = Oral bioavailability in rat; type: ADME, organism-based; details: in vivo
[3] = Lipophilicity, log D of the compound at pH 7.4 by chromatographic method; type: physicochemical; details: buffer
[4] = physchem; details: aqueous
[5] = Oral bioavailability in human; type: ADME, organism-based; details: in vivo
[6] = Solubility of the compound in FaSSIF; type: physicochemical
[7] = Solubility of the compound in pH 7.4 solution; type: physicochemical

- Kp [1]: 5
- bioavailability [2]: 50%
SMILES: COC(=O)N[C@H](C(=O)N1CCC[C@H]1c1nc(-c2ccc(-c3ccc(-c4c[nH]c([C@@H]5CCCN5C(=O)[C@@H](NC(=O)OC)C(C)C)n4)cc3)cc2)c[nH]1)C(C)C

- chromatographic logD [3]: 6.4
SMILES: COc1cc2c(cc1Cc1cccc(Cl)c1F)c(=O)c(C(=O)O)cn2[C@H](CO)C(C)C

SMILES: CCC[C@H](NC(=O)[C@@H]1[C@H]2CCC[C@H]2CN1C(=O)[C@@H](NC(=O)[C@@H](NC(=O)c1cnccn1)C1CCCCC1)C(C)(C)C)C(=O)C(=O)NC1CC1
- solubility [4]: 4.7 µg/mL (≈ 6.91 µM)

- chromatographic logD [3]: 3.3
SMILES: Cc1nnc(C(=O)NC(C)(C)c2nc(C(=O)NCc3ccc(F)cc3)c(O)c(=O)n2C)o1

- bioavailability [5]: 23%
SMILES: Cc1nnc(C(C)C)n1C1C[C@@H]2CC[C@@H](C1)N2CC[C@H](NC(=O)C1CCC(F)(F)CC1)c1ccccc1 (some centres undefined)

- chromatographic logD [3]: 3.7
SMILES: C[C@@H]1CCO[C@H]2Cn3cc(C(=O)NCc4ccc(F)cc4F)c(=O)c(O)c3C(=O)N12 [DOLUTEGRAVIR]

- solubility [6]: 11 µg/mL (≈ 12.7 µM)
- solubility [7]: 0.4 µg/mL (≈ 0.461 µM)
SMILES: CC1(C)CCC(CN2CCN(c3ccc(C(=O)NS(=O)(=O)c4ccc(NCC5CCOCC5)c([N+](=O)[O-])c4)c(Oc4cnc5[nH]ccc5c4)c3)CC2)=C(c2ccc(Cl)cc2)C1 [VENETOCLAX]
